Measured values reported in patent US10670605B2, “Cysteine reactive probes and uses thereof” (The Scripps Research Institute, priority 2015, dated 2020).

Legend:
Test in all cases: Competitive isoTOP-ABPP in situ (fragment-treated cells)
Format in all cases: cell-based
[1] = target: T1, cysteines in MDA-MB-231 and Ramos cells (Homo sapiens, UniProt Q96RN5); details: for isoTOP-ABPP ratio Q96RN5_C618: 200 μM, insitu
T1 sequence (Q96RN5 1-788): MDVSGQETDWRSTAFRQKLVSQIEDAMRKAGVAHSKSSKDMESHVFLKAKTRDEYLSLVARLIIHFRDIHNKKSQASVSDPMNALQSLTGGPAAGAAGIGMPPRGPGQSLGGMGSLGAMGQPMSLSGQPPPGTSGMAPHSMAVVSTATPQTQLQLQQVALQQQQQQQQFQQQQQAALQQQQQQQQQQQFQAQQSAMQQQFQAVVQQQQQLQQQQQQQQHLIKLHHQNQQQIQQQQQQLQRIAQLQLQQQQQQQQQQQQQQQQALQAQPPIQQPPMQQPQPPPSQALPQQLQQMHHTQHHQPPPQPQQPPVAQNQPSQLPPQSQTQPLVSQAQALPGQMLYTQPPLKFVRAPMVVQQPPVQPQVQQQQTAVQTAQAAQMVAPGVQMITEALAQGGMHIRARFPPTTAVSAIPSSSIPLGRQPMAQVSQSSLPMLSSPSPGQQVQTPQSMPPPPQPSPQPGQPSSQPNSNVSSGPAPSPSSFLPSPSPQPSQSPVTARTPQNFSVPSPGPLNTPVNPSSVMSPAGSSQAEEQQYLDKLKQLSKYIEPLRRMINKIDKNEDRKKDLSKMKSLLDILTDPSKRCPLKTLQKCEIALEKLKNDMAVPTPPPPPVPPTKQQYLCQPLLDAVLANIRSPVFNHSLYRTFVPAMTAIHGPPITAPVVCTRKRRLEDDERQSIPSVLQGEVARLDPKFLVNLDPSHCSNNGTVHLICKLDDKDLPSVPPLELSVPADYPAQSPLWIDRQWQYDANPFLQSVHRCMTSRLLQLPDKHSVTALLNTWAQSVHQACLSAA

[2] = target: cysteines in MDA-MB-231 and Ramos cells (Homo sapiens, UniProt Q9Y696)
[3] = target: T2, cysteines in MDA-MB-231 and Ramos cells (Homo sapiens, UniProt P42166)
T2 sequence (P42166 1-694): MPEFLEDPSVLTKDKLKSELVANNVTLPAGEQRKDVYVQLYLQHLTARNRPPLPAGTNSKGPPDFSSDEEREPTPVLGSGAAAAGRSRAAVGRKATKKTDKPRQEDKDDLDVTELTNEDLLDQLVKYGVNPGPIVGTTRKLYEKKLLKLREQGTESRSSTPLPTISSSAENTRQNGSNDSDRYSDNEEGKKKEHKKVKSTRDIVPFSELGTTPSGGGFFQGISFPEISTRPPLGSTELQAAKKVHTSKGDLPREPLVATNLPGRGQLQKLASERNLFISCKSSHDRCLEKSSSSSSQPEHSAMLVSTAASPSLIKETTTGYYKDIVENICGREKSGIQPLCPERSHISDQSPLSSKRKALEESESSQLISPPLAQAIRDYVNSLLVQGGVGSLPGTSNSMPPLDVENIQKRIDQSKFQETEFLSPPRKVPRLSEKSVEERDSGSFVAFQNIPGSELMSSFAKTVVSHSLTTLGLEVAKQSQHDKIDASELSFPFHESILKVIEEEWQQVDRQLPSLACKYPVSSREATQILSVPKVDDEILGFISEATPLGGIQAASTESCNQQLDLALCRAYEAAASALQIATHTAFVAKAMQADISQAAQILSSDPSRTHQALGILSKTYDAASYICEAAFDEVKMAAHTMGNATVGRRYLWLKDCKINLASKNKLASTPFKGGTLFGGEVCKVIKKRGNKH

[4] = target: T3, cysteines in MDA-MB-231 and Ramos cells (Homo sapiens, UniProt O15294)
T3 sequence (O15294 1-1046): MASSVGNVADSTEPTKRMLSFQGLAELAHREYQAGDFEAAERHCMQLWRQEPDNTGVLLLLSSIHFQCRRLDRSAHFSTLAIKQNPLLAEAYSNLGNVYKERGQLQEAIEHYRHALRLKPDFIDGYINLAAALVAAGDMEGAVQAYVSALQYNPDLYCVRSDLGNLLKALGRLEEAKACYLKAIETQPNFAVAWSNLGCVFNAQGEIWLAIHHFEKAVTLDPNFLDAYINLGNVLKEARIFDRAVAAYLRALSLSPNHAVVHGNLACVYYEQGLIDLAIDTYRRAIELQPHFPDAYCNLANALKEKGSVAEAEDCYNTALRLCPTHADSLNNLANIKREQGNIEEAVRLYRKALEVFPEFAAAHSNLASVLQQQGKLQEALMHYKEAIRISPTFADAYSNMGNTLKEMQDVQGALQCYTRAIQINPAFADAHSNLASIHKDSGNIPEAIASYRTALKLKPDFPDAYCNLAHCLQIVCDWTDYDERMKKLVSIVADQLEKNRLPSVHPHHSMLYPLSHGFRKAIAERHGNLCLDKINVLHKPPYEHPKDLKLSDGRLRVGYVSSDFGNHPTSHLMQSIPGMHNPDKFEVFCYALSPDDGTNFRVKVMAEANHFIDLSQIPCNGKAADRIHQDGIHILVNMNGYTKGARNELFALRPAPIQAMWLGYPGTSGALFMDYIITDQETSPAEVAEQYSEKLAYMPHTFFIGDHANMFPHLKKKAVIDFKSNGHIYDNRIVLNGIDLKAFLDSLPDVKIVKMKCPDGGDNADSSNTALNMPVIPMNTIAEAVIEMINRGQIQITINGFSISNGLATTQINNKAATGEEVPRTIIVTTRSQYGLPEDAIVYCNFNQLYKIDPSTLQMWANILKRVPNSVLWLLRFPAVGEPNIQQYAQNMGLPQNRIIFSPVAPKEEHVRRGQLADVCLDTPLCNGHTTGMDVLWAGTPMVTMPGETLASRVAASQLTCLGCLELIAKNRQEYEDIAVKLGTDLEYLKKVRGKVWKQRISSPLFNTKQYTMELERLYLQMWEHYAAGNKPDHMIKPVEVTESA

[5] = target: T4, cysteines in MDA-MB-231 and Ramos cells (Homo sapiens, UniProt Q9BVC5); details: for isoTOP-ABPP ratio Q9BVC5_C10: 200 μM, insitu, 231
T4 sequence (Q9BVC5 1-232): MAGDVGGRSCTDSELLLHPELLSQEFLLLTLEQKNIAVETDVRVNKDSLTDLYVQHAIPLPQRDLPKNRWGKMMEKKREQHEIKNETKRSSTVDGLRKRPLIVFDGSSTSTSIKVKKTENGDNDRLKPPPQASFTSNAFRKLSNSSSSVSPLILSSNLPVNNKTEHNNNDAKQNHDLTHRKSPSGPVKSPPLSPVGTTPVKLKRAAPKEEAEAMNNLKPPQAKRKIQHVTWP

cysteines in MDA-MB-231 and Ramos cells (Homo sapiens, UniProt Q9Y696), sequence (Q9Y696 whole entry): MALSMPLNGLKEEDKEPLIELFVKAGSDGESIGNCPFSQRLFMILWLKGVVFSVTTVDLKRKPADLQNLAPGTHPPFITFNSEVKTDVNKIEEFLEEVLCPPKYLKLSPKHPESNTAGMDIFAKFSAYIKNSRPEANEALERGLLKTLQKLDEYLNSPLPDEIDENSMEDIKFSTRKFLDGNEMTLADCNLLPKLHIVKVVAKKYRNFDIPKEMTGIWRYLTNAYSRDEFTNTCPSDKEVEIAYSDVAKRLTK

Compound | isoTOP-ABPP ratio Q96RN5_C618 [1]; 231 | isoTOP-ABPP ratio Q9Y696_C35 ([2]; 200 μM, insitu, 231) | isoTOP-ABPP ratio P42166_C561 ([3]; 200 μM, insitu, 231) | isoTOP-ABPP ratio O15294_C758 ([4]; 200 μM, insitu, 231) | isoTOP-ABPP ratio Q9BVC5_C10 [5] | isoTOP-ABPP ratio P42166_C341 ([3]; 200 μM, insitu, 231) | other results
COc1ccccc1OCCNC(=O)CCl [compound 28] | 0.7 | 2.7 | 1.1 | 1.0 | 0.9 |  | 
Cc1ccc(C=C(C#N)C(=O)NCCN2CCOCC2)cc1 [compound 41] |  | 0.6 | 0.7 | 0.9 | 1.0 | 0.5 | isoTOP-ABPP ratio O15294_C620 ([4]; 200 μM, insitu, 231): 1.0
O=C(CCl)NC(=O)NC12CC3CC(CC(C3)C1)C2 [compound 12] | 20.0 | 20.0 | 16.1 | 20.0 | 2.9 |  | 
O=C(CCl)NCCc1c[nH]c2ccccc12 [compound 13] | 1.0 | 2.3 | 1.2 | 1.0 | 1.6 | 1.3 | isoTOP-ABPP ratio Q96RN5_C618 ([1]; ramos): 1.4; isoTOP-ABPP ratio Q9Y696_C35 ([2]; 200 μM, insitu, ramos): 3.2; isoTOP-ABPP ratio, cysteine P42166_C629 ([3]; 200 μM, insitu, 231): 1.0; isoTOP-ABPP ratio, cysteine P42166_C684 ([3]; 200 μM, insitu, 231): 1.2; isoTOP-ABPP ratio P42166_C341 ([3]; 200 μM, insitu, ramos): 1.4; isoTOP-ABPP ratio P42166_C561 ([3]; 200 μM, insitu, ramos): 1.0
O=C(CCl)N1CCC(Cc2ccccc2)CC1 [compound 9] |  |  |  |  |  |  | isoTOP-ABPP reactivity Q9Y696_C35 CLIC4 ([2]; 200 μM, insitu, 231): 2.6; isoTOP-ABPP reactivity P42166_C561 TMPO ([3]; 200 μM, insitu, 231): 3.7; isoTOP-ABPP reactivity 015294_C758 OGT ([4]; 200 μM, insitu, 231): 2.1
COc1ccc(C2CC(c3cccs3)=NN2C(=O)CCl)cc1 (stereo not shown) [compound 4] |  |  |  |  |  |  | isoTOP-ABPP reactivity O96RN5_C618 MED15 ([1]; 100 μM in situ 231): 4.5; isoTOP-ABPP reactivity Q9Y696_C35 CLIC4 ([2]; 100 μM in situ 231): 20.0; isoTOP-ABPP reactivity P42166_C561 TMPO ([3]; 100 μM in situ 231): 20.0; isoTOP-ABPP reactivity 015294_C758 OGT ([4]; 100 μM in situ 231): 6.4; isoTOP-ABPP reactivity O15294_C620 OGT ([4]; 100 μM in situ 231): 20.0; isoTOP-ABPP reactivity Q9BVC5_C10 C2orf49 ([5]; 100 μM in situ 231): 3.3
O=C(CCl)NC12CC3CC(CC(C3)C1)C2 [compound 21] | 1.0 | 1.1 | 1.4 | 1.1 | 1.5 | 1.7 | isoTOP-ABPP ratio, cysteine P42166_C518 ([3]; 200 μM, insitu, 231): 1.4; isoTOP-ABPP ratio, cysteine P42166_C629 ([3]; 200 μM, insitu, 231): 1.6
O=C(CCl)Nc1cccc2ncccc12 [compound 51] | 2.1 | 2.6 | 1.3 | 1.1 | 1.0 | 1.2 | isoTOP-ABPP ratio P42166_C684 ([3]; 200 μM, insitu, 231): 1.2
